The record followed here is patent US9751854B2 (Millennium Pharmaceuticals, Inc., priority 2014, dated 2017).

Usually IC50 stands for the concentration that gives 50% inhibition.

Structures are written as SMILES.

The target in the first assay is human VPS34 (Homo sapiens (Human), UniProt Q8NEB9). Briefly: Human VPS34 enzyme assay (Adapta TR-FRET ADP detection).
human VPS34, sequence (Q8NEB9 whole entry): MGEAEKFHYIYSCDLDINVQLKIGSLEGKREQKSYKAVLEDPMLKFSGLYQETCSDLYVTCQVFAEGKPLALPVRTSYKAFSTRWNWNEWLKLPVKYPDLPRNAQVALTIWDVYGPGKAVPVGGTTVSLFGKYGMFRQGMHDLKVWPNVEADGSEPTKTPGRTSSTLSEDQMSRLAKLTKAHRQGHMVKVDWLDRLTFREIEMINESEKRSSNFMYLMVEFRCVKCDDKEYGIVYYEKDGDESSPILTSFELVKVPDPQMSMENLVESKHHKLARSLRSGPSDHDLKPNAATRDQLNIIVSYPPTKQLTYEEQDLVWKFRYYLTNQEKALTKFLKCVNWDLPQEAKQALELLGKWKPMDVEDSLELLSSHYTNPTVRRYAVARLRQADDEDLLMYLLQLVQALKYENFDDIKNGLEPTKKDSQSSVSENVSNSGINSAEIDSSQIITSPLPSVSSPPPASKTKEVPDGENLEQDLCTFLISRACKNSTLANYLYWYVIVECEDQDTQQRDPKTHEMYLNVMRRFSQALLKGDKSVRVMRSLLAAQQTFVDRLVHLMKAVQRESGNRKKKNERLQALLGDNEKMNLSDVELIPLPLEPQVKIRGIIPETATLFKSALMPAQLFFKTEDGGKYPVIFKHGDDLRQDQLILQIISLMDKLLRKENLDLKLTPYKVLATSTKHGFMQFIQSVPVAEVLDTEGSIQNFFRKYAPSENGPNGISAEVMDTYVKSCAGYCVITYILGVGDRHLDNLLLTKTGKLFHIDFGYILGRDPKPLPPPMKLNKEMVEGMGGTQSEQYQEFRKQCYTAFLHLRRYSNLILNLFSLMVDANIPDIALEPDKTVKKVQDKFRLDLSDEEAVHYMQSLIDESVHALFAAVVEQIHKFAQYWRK
Settings: not given
Further details: Percent Inhibition: dose or concentration left out as unconfirmed. The class given is biochemical. In general terms: Time-resolved FRET reads energy transfer from a long-lived donor to a nearby acceptor.
For `CC(=O)Nc1cc(-c2ccnc(Nc3ccnc(C4CC4)n3)c2)cn2nccc12` [Compound I-371, N-(6-{2-[(2-cyclopropylpyrimidin-4-yl)amino]pyridin-4-yl}pyrazolo[1,5-a]pyridin-4-yl)acetamide], the “Percent Inhibition” value is given as >99%.

Take `CC(=O)Nc1cc(-c2cnc(Cl)c(NS(=O)(=O)N(C)C)c2)ccn1` [Compound I-372, N-{6-chloro-5-[(dimethylsulfamoyl)amino]-3,4′-bipyridin-2′-yl}acetamide]: the “Percent Inhibition” value was >99%.

Still in this assay, the particulars now being: IC50 range class.
`Cc1ncc(-c2ccnc(Nc3ccnc(C4CC4)n3)c2)cc1NC(=O)N1CC(F)(F)C1` [Compound I-368, N-(2′-((2-cyclopropylpyrimidin-4-yl)amino)-6-methyl-[3,4′-bipyridin]-5-yl)-3,3-difluoroazetidine-1-carboxamide] came in with an IC50 of 10 to 50 nM.

For the compound `Cc1c(-c2ccnc(Nc3ccnc(C4CC4)n3)c2)cnc(Cl)c1C(=O)O` [Compound I-369, 6-chloro-2′-((2-cyclopropylpyrimidin-4-yl)amino)-4-methyl-[3,4′-bipyridine]-5-carboxylic acid], the IC50 was 10 to 50 nM.

As for `CCN(CC)S(=O)(=O)c1cc(-c2ccnc(NC(C)=O)c2)cnc1C` [Compound I-370, N-[5-(diethylsulfamoyl)-6-methyl-3,4′-bipyridin-2′-yl]acetamide], the concentration for half-maximal inhibition (IC50) was in the range of 10 to 50 nM.

For `CC(=O)Nc1cc(-c2ccnc(Nc3ccnc(C4CC4)n3)c2)cn2nccc12` [Compound I-371, N-(6-{2-[(2-cyclopropylpyrimidin-4-yl)amino]pyridin-4-yl}pyrazolo[1,5-a]pyridin-4-yl)acetamide], the IC50 was < 10 nM.

For the compound `CC(=O)Nc1cc(-c2cnc(Cl)c(NS(=O)(=O)N(C)C)c2)ccn1` [Compound I-372, N-{6-chloro-5-[(dimethylsulfamoyl)amino]-3,4′-bipyridin-2′-yl}acetamide], the IC50 is < 10 nM.

The compound `CCCCS(=O)(=O)Nc1cc(-c2ccnc(NC(C)=O)c2)cnc1C` [Compound I-373, N-{5-[(butylsulfonyl)amino]-6-methyl-3,4′-bipyridin-2′-yl}acetamide] displayed a half-maximal inhibitory concentration (IC50) of 10 to 50 nM.

Compound `CC(=O)Nc1cc(-c2cnc(C)c(NS(=O)(=O)N3CCC(F)(F)CC3)c2)ccn1` [Compound I-374, N-(5-{[(4,4-difluoropiperidin-1-yl)sulfonyl]amino}-6-methyl-3,4′-bipyridin-2′-yl)acetamide] gave an IC50 of 10 to 50 nM.

On to `COc1nc(C)nc(Nc2cc(-c3cnc(C)c(NS(=O)(=O)c4ccc(F)cc4F)c3)ccn2)n1` [Compound I-375, 2,4-difluoro-N-{2′-[(4-methoxy-6-methyl-1,3,5-triazin-2-yl)amino]-6-methyl-3,4′-bipyridin-5-yl}benzenesulfonamide], for which the IC50 was < 10 nM.

The compound `CC(=O)Nc1cc(-c2cnc3c(c2)S(=O)(=O)N(C24CC(C2)C4)CCO3)ccn1` [Compound I-376, N-{4-[2-(bicyclo[1.1.1]pent-1-yl)-1,1-dioxido-3,4-dihydro-2H-pyrido[2,3-b][1,4,5]oxathiazepin-8-yl]pyridin-2-yl}acetamide] returned a half-inhibitory concentration (IC50) of 10 to 50 nM.

Take `CC(=O)Nc1cc(-c2cnc(C)c(NS(=O)(=O)c3cccc(F)c3F)c2)ccn1` [Compound I-377, N-(5-{[(2,3-difluorophenyl)sulfonyl]amino}-6-methyl-3,4′-bipyridin-2′-yl)acetamide]: the IC50 was 10 to 50 nM.

Take `Cc1nccc(Nc2cc(-c3cnc4c(c3)C(=O)N(Cc3ccccc3)CC4)ccn2)n1` [Compound I-378, 6-benzyl-3-[2-[(2-methylpyrimidin-4-yl)amino]-4-pyridyl]-7,8-dihydro-1,6-naphthyridin-5-one]: the IC50 is > 100 nM.

On to `Cc1nccc(Nc2cc(-c3cnc(C)c(OCCN(C)C)c3)ccn2)n1` [Compound I-379, 5-[2-(dimethylamino)ethoxy]-6-methyl-N-(2-methylpyrimidin-4-yl)-3,4′-bipyridin-2′-amine], for which the IC50 is > 100 nM.

For the compound `CC(=O)Nc1cc(-c2cnc(C#N)c(N3CCCCC3C)c2)ccn1` (stereo not shown) [Compound I-380, N-[6-cyano-5-(2-methylpiperidin-1-yl)-3,4′-bipyridin-2′-yl]acetamide], the half-maximal inhibitory concentration (IC50) is > 100 nM.

`Cc1nccc(Nc2cc(-c3cnc(Cl)c(NS(=O)(=O)N(C)C)c3C)ccn2)n1` [Compound I-381, N′-{6-chloro-4-methyl-2′-[(2-methylpyrimidin-4-yl)amino]-3,4′-bipyridin-5-yl}-N,N-dimethylsulfuric diamide]: the IC50 was < 10 nM.

Turning to `Cc1nc(Nc2cc(-c3cnc(C)c(NS(=O)(=O)c4ccc(F)cc4F)c3)ccn2)nc(C2CC2)n1` [Compound I-382, N-{2′-[(4-cyclopropyl-6-methyl-1,3,5-triazin-2-yl)amino]-6-methyl-3,4′-bipyridin-5-yl}-2,4-difluorobenzenesulfonamide], the IC50 was < 10 nM.

The compound `CCOC(=O)Nc1cc(-c2cnc(Cl)c(NS(=O)(=O)c3ccc(F)cc3F)c2C)ccn1` [Compound I-383, ethyl (6-chloro-5-{[(2,4-difluorophenyl)sulfonyl]amino}-4-methyl-3,4′-bipyridin-2′-yl)carbamate] had a half-inhibitory concentration (IC50) of 10 to 50 nM.

`CC(=O)Nc1cc(-c2cncc(N(CCO)S(=O)(=O)c3ccc(F)cc3F)c2)ccn1` [Compound I-384, N-(5-{[(2,4-difluorophenyl)sulfonyl](2-hydroxyethyl)amino}-3,4′-bipyridin-2′-yl)acetamide]: the IC50 is > 100 nM.

`CC(=O)Nc1cc(-c2cnc(C)c(N3CCN(C)S3(=O)=O)c2)ccn1` [Compound I-386, N-[6-methyl-5-(5-methyl-1,1-dioxido-1,2,5-thiadiazolidin-2-yl)-3,4′-bipyridin-2′-yl]acetamide] registered a concentration for half-maximal inhibition (IC50) of 10 to 50 nM.

Take `CC(=O)Nc1cc(-c2cnc(C)c(N3CCCNS3(=O)=O)c2)ccn1` [Compound I-387, N-[5-(1,1-dioxido-1,2,6-thiadiazinan-2-yl)-6-methyl-3,4′-bipyridin-2′-yl]acetamide]: the IC50 lay in the range of 10 to 50 nM.

The compound `Cc1ncc(-c2ccnc(NC(=O)C3CC3)c2)cc1C(=O)N(C)C12CC(C1)C2` [Compound I-388, N-(bicyclo[1.1.1]pent-1-yl)-2′-[(cyclopropylcarbonyl)amino]-N,6-dimethyl-3,4′-bipyridine-5-carboxamide] gave an IC50 of 50 to 100 nM.

As for `CCOC(=O)Nc1cc(-c2cnc(C)c(NS(=O)(=O)c3ccc(F)cc3F)c2)ccn1` [Compound I-389, ethyl (5-{[(2,4-difluorophenyl)sulfonyl]amino}-6-methyl-3,4′-bipyridin-2′-yl)carbamate], the IC50 was < 10 nM.

Regarding `Cc1ccc(Oc2cc(-c3ccnc(Nc4ccnc(C)n4)c3)cnc2C)nc1` [Compound I-390, 6-methyl-5-[(5-methylpyridin-2-yl)oxy]-N-(2-methylpyrimidin-4-yl)-3,4′-bipyridin-2′-amine], the IC50 was 10 to 50 nM.

On to `CC(=O)Nc1cc(-c2cncc(S(=O)(=O)N3CC(F)(F)C3)c2)ccn1` [Compound I-391, N-{5-[(3,3-difluoroazetidin-1-yl)sulfonyl]-3,4′-bipyridin-2′-yl}acetamide], for which the IC50 is 10 to 50 nM.

On to `CC(=O)Nc1cc(-c2cnc(C)c(Nc3nc4ccccc4o3)c2)ccn1` [Compound I-392, N-[5-(1,3-benzoxazol-2-ylamino)-6-methyl-3,4′-bipyridin-2′-yl]acetamide], for which the half-inhibitory concentration (IC50) was > 100 nM.

In turn, `CC(=O)Nc1cc(-c2cncc(NS(=O)(=O)c3ccc(F)cc3F)c2Cl)ccn1` [Compound I-394, N-(4-chloro-5-{[(2,4-difluorophenyl)sulfonyl]amino}-3,4′-bipyridin-2′-yl)acetamide] displayed a half-maximal inhibitory concentration (IC50) of 10 to 50 nM.

Turning to `CC(=O)Nc1cc(-c2cnc(C)c(S(N)(=O)=O)c2)ccn1` [Compound I-395, N-(6-methyl-5-sulfamoyl-3,4′-bipyridin-2′-yl)acetamide], the half-inhibitory concentration (IC50) is 10 to 50 nM.
